Measured values published in ChEMBL document CHEMBL1201862, “PubChem BioAssay data set” (2004).
Active and inactive are the calls of the source.

Key:
[1] = target: Induced myeloid leukemia cell differentiation protein Mcl-1 (Homo sapiens, UniProt Q07820); type: functional
[2] = target: T1, Carboxy-terminal domain RNA polymerase II polypeptide A small phosphatase 1 (Homo sapiens, UniProt Q9GZU7); experiment: CTDSP1 inhibitors, concentration-response, biochemical, absorbance readout, ultra-high-throughput screen actives (AID 540297); type: functional
T1 sequence (Q9GZU7 whole entry): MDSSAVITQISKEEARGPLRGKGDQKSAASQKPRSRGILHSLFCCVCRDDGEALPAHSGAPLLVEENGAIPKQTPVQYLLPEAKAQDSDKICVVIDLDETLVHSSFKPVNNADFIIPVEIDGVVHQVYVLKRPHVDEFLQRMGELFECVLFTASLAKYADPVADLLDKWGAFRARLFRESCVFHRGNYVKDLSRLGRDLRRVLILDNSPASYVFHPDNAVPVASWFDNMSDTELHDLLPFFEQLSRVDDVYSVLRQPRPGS

[3] = target: T2, Caspase-6 (Homo sapiens, UniProt P55212); experiment: inhibition of CASP6 peptide cleavage – biochemical, VEID-R110 fluorescence, cherry-pick, dose response (AID 720632)
T2 sequence (P55212 whole entry): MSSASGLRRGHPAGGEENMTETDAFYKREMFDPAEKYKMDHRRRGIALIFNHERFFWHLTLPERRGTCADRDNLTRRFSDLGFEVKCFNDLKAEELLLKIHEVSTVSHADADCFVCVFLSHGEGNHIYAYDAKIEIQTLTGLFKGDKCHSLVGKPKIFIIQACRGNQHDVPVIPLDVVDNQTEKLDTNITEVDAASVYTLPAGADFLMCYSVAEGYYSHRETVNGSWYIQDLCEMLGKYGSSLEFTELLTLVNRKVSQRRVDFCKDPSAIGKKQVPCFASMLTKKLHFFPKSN

[4] = target: Caspase-7 (Homo sapiens, UniProt P55210); experiment: caspase-7 enzyme inhibition, selectivity check – biochemical, DEVD-R110 fluorescence, cherry-pick, selectivity assay for caspase-6 inhibitor project, dose response (AID 743295); type: functional
Caspase-7, sequence (P55210 24-198 limits assumed): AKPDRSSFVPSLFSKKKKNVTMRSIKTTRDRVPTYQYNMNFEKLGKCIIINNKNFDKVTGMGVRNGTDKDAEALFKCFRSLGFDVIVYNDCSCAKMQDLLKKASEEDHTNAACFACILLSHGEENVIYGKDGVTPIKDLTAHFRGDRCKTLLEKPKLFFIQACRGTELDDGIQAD
Caspase-7, sequence (P55210 207-303 limits assumed): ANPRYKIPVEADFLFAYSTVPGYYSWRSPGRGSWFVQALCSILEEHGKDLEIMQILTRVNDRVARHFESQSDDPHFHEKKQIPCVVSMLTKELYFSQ

[5] = Luminescence Cell-Based Dose Response HTS to Identify Activators of Luciferase Translation or Activity in H4 […] Cells. [Related pubchem assays: 1829 (Project Summary), 1814 (Primary HTS)]; type: functional
[6] = tested on: H4; experiment: Luminescence Cell-Based Dose Response HTS to Identify Activators of 5'UTR Stem-Loop Driven Prion Protein mRNA Translation in H4 Neuroglioblastoma Cells. [Related pubchem assays: 1829 (Project Summary), 1814 (Primary HTS)]; type: functional; conditions: Homo sapiens
[7] = target: T3, Protein skinhead-1 (Caenorhabditis elegans, UniProt P34707); type: functional
T3 sequence (P34707 whole entry): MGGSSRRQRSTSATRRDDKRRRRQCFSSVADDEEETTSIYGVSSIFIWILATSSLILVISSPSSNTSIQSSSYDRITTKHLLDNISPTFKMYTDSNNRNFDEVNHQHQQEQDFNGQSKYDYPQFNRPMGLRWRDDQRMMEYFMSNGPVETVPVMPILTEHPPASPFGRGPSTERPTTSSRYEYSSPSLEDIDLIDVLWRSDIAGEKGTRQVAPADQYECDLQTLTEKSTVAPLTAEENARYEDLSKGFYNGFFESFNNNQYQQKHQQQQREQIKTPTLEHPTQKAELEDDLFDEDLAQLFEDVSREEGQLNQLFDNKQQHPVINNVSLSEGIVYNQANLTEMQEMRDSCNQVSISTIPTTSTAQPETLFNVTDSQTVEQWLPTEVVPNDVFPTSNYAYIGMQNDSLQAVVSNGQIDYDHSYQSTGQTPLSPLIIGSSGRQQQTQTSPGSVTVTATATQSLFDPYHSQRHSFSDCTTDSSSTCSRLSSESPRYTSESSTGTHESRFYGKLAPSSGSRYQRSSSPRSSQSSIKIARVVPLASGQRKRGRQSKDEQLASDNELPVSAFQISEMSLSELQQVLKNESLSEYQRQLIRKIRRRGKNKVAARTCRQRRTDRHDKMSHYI

[8] = target: T4, Oxysterols receptor LXR-beta (Homo sapiens, UniProt P55055); type: functional, cell-based;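 also: Cell-based luminescence dose-response assay of agonist activity at LXR, run as a confirmatory counterscreen to a daf-12 agonist screen; HEK293 cells with Gal4-LXR fusion and GAL4-driven luciferase reporter; agonist potency from rising luciferase signal of a Gal4-LXR reporter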
T4 sequence (P55055 whole entry): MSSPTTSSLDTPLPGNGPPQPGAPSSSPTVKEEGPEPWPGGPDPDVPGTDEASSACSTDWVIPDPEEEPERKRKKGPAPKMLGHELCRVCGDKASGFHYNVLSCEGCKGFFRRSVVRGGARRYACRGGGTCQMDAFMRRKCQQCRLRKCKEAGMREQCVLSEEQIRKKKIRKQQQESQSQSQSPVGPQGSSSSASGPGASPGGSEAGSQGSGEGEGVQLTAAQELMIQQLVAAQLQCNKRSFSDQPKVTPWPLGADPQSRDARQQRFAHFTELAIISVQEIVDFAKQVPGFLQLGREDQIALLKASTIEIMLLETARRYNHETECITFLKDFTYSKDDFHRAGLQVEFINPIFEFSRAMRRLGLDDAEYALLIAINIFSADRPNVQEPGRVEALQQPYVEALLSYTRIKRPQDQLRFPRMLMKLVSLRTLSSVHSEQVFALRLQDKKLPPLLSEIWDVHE

[9] = cells
[10] = target: Glucose-6-phosphate 1-dehydrogenase (Homo sapiens, UniProt P11413); experiment: inhibition of Homo sapiens G6PD, dose series – biochemical, fluorescence, selectivity assay for P. falciparum G6PD inhibitor project, dose response (AID 504792); type: functional
Glucose-6-phosphate 1-dehydrogenase, sequence (P11413 whole entry): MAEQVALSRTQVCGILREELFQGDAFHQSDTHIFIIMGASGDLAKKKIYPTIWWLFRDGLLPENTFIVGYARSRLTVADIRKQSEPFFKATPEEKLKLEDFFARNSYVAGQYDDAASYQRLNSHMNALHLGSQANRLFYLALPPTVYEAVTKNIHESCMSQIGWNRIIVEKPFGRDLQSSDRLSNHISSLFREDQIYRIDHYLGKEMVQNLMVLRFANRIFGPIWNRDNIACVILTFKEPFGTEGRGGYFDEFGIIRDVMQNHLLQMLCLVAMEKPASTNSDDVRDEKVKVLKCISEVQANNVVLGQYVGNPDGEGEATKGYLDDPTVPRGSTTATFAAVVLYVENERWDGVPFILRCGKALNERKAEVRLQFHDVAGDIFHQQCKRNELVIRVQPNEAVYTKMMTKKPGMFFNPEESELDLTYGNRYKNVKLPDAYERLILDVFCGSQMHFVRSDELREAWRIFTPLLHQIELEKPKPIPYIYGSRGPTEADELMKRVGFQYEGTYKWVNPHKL

[11] = target: Dual specificity tyrosine-phosphorylation-regulated kinase 1A (Rattus norvegicus, UniProt Q63470); type: biochemical, Homo sapiens
[12] = viability loss in HepG2 hepatoma cells – cell-based, ATP luminescence, cherry-pick, activator set 2, cytotoxicity control, dose response (AID 1053143); type: functional
[13] = target: fMet-Leu-Phe receptor (Homo sapiens, UniProt P21462); experiment: formyl peptide receptor binders – dose response (AID 519); type: functional
fMet-Leu-Phe receptor, sequence (P21462 whole entry): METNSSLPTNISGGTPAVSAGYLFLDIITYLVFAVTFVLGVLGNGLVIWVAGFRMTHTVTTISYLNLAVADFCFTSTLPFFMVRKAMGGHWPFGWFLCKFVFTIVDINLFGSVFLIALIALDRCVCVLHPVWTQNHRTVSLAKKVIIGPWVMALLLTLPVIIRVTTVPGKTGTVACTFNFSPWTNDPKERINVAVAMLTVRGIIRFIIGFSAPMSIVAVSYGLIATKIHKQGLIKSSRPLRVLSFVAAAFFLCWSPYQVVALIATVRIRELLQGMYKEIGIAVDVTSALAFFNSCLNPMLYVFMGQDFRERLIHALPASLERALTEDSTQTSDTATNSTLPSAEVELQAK

[14] = target: Luciferin 4-monooxygenase (Photinus pyralis, UniProt P08659); experiment: inhibition of purified Photinus pyralis luciferase – biochemical, luminescence, dose response (AID 1891)
Luciferin 4-monooxygenase, sequence (P08659 whole entry): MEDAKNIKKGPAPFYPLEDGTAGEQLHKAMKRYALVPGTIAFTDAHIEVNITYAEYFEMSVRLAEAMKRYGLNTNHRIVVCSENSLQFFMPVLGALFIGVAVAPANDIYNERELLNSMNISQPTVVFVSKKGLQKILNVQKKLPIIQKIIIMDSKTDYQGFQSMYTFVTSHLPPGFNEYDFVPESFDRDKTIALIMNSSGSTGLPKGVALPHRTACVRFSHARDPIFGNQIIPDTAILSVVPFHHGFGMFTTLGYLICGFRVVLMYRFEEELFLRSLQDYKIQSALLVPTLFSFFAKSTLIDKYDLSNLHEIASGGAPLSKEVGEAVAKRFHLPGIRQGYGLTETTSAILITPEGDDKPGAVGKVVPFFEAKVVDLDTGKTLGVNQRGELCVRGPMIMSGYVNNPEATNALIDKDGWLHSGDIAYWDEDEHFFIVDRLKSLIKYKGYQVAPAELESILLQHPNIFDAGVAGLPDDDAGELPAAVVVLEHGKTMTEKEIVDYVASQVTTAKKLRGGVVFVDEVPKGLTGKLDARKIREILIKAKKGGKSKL

[15] = Luminescence Cell-Based Dose Confirmation HTS to Identify Inhibitors of Platelet Dense Granule Release. [Related pubchem assays: 1663 (Primary HTS), 1678 (Summary of Project)]; type: functional
[16] = target: Cytochrome P450 2C9 (Homo sapiens, UniProt P11712)
Cytochrome P450 2C9, sequence (P11712 whole entry): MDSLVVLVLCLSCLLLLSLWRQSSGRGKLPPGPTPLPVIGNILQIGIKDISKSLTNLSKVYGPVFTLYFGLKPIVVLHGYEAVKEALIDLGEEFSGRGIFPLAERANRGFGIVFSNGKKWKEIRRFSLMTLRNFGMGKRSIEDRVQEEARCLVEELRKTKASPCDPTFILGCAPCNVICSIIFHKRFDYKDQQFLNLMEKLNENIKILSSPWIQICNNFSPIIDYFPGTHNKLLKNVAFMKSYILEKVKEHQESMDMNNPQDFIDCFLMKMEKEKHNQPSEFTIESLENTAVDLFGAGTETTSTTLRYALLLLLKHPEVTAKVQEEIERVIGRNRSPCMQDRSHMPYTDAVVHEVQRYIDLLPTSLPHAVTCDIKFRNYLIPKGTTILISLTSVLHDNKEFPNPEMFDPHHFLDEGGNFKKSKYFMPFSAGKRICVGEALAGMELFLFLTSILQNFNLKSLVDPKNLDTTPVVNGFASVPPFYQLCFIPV

[17] = target: Kallikrein-7 (Homo sapiens, UniProt P49862); experiment: Fluorescence Intensity-based biochemical primary high throughput dose response assay to identify activators of kallikrein-7 (K7) zymogen.
Kallikrein-7, sequence (P49862 whole entry): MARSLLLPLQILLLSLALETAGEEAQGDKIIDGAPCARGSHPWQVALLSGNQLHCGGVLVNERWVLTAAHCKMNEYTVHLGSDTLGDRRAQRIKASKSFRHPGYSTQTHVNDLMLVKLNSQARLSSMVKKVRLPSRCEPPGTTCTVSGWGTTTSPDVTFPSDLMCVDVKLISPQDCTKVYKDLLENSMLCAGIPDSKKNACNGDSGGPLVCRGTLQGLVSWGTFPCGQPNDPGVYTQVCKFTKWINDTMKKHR

[18] = activation of miR-122 Renilla sensor silencing – cell-based, Huh7 psiCHECK-miR122, Renilla luciferase, cherry-picked, dose response (AID 651956); type: functional;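 also: huh7 hepatoma cells stably carrying a psiCHECK-2 miR-122 sensor plasmid; renilla luciferase signal reporting endogenous miR-122 activity after 48 h compound exposure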
[19] = target: Paired box protein Pax-8 (Homo sapiens, UniProt Q06710); experiment: PAX8 transcriptional activity inhibition in RMG-I – RMG-I cells, luciferase, cherry-pick, dose response (AID 687027); type: functional, cell-based;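 also: luciferase reporter driven by Pax8 target thyroperoxidase promoter measured by SteadyGlo luminescence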
Paired box protein Pax-8, sequence (Q06710 whole entry): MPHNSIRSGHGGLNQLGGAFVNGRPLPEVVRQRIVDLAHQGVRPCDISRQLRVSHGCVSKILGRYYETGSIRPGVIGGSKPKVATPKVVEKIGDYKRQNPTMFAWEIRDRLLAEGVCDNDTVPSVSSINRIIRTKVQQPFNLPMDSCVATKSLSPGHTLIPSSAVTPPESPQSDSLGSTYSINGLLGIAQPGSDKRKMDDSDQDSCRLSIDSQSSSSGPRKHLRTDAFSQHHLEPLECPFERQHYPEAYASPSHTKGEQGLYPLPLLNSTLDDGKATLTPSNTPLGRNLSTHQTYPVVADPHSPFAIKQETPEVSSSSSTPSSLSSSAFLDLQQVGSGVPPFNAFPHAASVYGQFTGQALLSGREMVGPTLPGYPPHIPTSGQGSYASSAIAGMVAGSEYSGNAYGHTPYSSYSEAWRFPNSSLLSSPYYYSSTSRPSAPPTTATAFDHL

[20] = reduced cellular PGC1a acetyl-lysine signal – cell-based, cherry-picked samples, dose response (AID 720514); type: functional;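 also: potency may reflect raised or lowered acetylation signal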
[21] = OVCAR-3 cell viability loss – plate reader, dry powder samples, PAX8 inhibitor project, dose response (AID 743044); type: functional, cell-based
[22] = general mammalian cell viability loss – inhibitor set, cherry-pick, set 2, cytotoxicity control for miR-122 modulator project, dose response (AID 720697); type: functional, cell-based
[23] = Dd2 parasite growth inhibition in erythrocytes – SYBR Green, dry powder samples, set 9, dose response (AID 1159568); type: functional, cell-based
[24] = P. falciparum Dd2 growth inhibitors, dose response, SYBR Green, cherry-picked samples (AID 1159567); type: functional, cell-based
[25] = toxicity to human hepatoma HepG2 cells – cell-based, cherry-picked samples, cytotoxicity control, dose response (AID 1159577); type: functional
[26] = target: T5, RNA-binding protein pos-1 (Caenorhabditis elegans, UniProt G5EF15); experiment: disruptors of C. elegans POS-1 RNA interaction – biochemical, fluorescence polarization, dose response (AID 1964);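 also: purified POS-1 fused to maltose binding protein made in E. coli; potency of compounds blocking POS-1 binding to fluorescent RNA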
T5 sequence (G5EF15 whole entry): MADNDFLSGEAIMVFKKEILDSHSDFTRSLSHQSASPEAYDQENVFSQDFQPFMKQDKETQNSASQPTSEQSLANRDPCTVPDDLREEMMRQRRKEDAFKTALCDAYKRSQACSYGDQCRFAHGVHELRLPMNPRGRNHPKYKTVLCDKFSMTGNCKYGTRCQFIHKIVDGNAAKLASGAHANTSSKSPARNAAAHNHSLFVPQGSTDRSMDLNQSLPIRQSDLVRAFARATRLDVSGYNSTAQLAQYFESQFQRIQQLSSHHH

[27] = target: T6, Zinc finger protein mex-5 (Caenorhabditis elegans, UniProt Q9XUB2); experiment: potency of MEX-5 RNA-binding blockers – biochemical, C. elegans, fluorescence polarization, dose response (AID 1960)
T6 sequence (Q9XUB2 whole entry): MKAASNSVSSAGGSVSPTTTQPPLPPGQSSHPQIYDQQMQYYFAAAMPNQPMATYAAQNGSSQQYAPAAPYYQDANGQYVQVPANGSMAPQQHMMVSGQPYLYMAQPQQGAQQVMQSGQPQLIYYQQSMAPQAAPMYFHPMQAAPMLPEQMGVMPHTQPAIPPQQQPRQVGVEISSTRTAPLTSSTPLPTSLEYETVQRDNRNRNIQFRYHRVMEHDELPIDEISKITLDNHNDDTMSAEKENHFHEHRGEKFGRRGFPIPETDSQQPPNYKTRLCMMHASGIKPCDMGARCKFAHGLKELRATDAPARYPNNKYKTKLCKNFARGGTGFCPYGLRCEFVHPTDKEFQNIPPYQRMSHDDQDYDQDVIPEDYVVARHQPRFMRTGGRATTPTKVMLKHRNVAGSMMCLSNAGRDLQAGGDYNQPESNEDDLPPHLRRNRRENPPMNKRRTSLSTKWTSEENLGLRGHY

[28] = target: Mu-type opioid receptor (Homo sapiens, UniProt P35372); type: functional, cell-based;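 also: U2OS cells with beta-arrestin recruitment to OPRM1 by beta-gal complementation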
Mu-type opioid receptor, sequence (P35372 whole entry): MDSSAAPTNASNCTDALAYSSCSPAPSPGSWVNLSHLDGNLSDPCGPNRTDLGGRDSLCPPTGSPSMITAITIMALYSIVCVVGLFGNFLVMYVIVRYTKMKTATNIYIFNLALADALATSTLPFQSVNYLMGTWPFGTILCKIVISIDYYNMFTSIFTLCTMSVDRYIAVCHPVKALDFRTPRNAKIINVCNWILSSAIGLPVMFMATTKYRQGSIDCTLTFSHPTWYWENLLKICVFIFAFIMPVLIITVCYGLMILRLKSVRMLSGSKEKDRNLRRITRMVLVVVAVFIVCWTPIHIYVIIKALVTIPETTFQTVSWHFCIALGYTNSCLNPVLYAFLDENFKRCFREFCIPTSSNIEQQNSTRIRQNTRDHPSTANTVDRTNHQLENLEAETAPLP

[29] = target: 5-hydroxytryptamine receptor 2A (Mus musculus, UniProt P35363); type: functional, cell-based;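 also: CHO-K1 cells with tagged receptor and beta-arrestin; agonist potency measured as compound-induced activation of the receptor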
5-hydroxytryptamine receptor 2A, sequence (P35363 whole entry): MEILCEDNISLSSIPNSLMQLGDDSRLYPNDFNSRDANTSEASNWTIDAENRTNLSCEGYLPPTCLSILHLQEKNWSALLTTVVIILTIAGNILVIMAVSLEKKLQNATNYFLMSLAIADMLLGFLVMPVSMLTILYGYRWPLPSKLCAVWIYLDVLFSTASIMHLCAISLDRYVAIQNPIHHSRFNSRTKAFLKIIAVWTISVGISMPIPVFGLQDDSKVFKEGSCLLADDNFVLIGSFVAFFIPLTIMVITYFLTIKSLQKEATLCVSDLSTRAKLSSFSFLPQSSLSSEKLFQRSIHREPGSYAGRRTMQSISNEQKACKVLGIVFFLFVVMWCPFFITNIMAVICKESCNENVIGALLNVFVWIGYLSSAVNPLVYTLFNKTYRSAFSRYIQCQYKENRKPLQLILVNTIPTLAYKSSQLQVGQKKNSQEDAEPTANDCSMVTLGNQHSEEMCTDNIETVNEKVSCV

[30] = cells; type: functional, cell-based
[31] = target: T7, Trace amine-associated receptor 1 (Homo sapiens, UniProt Q96RJ0); experiment: Fluorescence-based cell-based high throughput dose response assay to identify agonists of the human trace amine associated receptor 1 (TAAR1).; type: functional
T7 sequence (Q96RJ0 whole entry): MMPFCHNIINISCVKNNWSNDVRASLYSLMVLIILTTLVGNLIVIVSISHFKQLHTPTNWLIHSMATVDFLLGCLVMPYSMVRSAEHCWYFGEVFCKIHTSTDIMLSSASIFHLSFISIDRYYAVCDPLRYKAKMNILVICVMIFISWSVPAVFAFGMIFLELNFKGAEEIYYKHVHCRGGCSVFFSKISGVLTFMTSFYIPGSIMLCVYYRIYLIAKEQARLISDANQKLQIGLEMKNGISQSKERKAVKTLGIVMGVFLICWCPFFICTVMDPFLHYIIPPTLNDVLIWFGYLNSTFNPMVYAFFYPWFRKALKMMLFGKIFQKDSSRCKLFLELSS

[32] = target: T7, Trace amine-associated receptor 1; experiment: Counterscreen for agonists of the human trace amine associated receptor 1 (hTAAR1): Fluorescence-based cell-based high throughput dose response assay to identify hTAAR1 agonist that also desensitize TAAR1 receptor response.; type: functional
[33] = cells; type: functional, cell-based; remark: listed apart in the source

Induced myeloid leukemia cell differentiation protein Mcl-1, sequence (Q07820 whole entry, the tested form may be a part): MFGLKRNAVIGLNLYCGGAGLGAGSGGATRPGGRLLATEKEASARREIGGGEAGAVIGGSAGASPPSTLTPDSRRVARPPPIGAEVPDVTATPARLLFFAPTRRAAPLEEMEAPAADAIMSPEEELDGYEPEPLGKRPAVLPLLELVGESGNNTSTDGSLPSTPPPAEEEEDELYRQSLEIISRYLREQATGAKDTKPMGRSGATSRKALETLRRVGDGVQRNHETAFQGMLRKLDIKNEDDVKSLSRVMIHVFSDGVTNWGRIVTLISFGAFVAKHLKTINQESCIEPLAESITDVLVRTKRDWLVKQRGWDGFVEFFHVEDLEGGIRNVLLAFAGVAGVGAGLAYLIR

CCCSC1=N/C(=C\c2ccc([N+](=O)[O-])o2)C(=O)S1
IC50 [1]: 3.88 µM (active) | IC50 [2]: 4.92 µM (active) | AC50 [3]: 2.93 µM (active) | AC50 [4]: 45.9 µM (active)

Cc1nc(NC(=O)c2cccs2)ccc1Br
EC50 [5]: 13.2 µM (active) | EC50 [6]: 0.129 µM (active) | IC50 [7]: 24.4 µM (active) | EC50 [8]: > 67.5 µM (inactive) | EC50 [9]: > 67.5 µM (inactive)

CN1/C(=C\C(=O)c2cccs2)Sc2ccccc21
IC50 [10]: > 80 µM (inactive) | EC50 [8]: > 67.5 µM (inactive) | EC50 [9]: > 67.5 µM (inactive)

O=[N+]([O-])c1ccccc1-c1cc(-c2ccccc2O)n[nH]1
AC50 [11]: 7.59 µM (active) | AC50 [12]: 26 µM (active)

COc1cccc(C(=O)C2=C(O)C(=O)N(Cc3cccnc3)C2c2ccco2)c1 (configuration not stated)
Ki [13]: > 66.7 µM (inactive)

CCOC(=O)c1sc(NC(=O)c2sccc2C)cc1C
EC50 [14]: 0.409 µM (active) | EC50 [15]: 3.04 µM (active) | AC50 [12]: 12.8 µM (active)

COc1ccc(-c2c(C)oc3c(CN4CCN(CCO)CC4)c(O)ccc3c2=O)cc1OC
Ki [13]: > 66.7 µM (inactive) | AC50 [16]: 0.447 µM (inconclusive)

CN(C(=O)c1cc2c(=O)n3ccccc3nc2s1)C1CCCCC1
EC50 [17]: 24.8 µM (inactive)

COc1ccc(C#Cc2ccc([C@H]3[C@@H](CO)N4CCCCN(C(=O)Nc5ccccc5)C[C@H]34)cc2)cc1
AC50 [18]: 6.04 µM (active) | AC50 [19]: 12.5 µM (active) | AC50 [20]: 16.4 µM (active) | AC50 [21]: 30.4 µM (active) | AC50 [22]: 7.88 µM (active)

COc1cccc(S(=O)(=O)N2CCCCN3[C@@H](CO)[C@@H](c4ccc(C#CCC(C)C)cc4)[C@@H]3C2)c1
AC50 [19]: 14.6 µM (active) | AC50 [21]: 43.3 µM (active) | AC50 [23]: 1.48 µM (active) | AC50 [24]: 0.991 µM (active) | AC50 [25]: 11.8 µM (active)

O=S(=O)(Cc1ccccc1)N1CCCCN2[C@@H](CO)[C@H](c3ccc(C#Cc4ccccc4)cc3)[C@@H]2C1
AC50 [24]: 4.25 µM (active) | AC50 [25]: 8.93 µM (active)

CN1C[C@H](CO)C=C2c3cccc4[nH]cc(c34)C[C@H]21
EC50 [26]: 20.6 µM (active) | EC50 [27]: 53.2 µM (inconclusive) | EC50 [28]: 92.5 µM (inactive) | EC50 [29]: 0.018 µM (active) | IC50 [30]: > 29.9 µM (inactive) | EC50 [31]: 7.63 µM (active) | IC50 [32]: 4.58 µM (active) | EC50 [33]: > 29.9 µM (inactive) | EC50 [17]: > 7.72 µM (active)
